The values that follow come from US11472798B2 (Mission Therapeutics Limited, priority 2014, dated 2022).

Structures are written as SMILES. pIC50: −log10 of the molar value.

For the experiment, the target named is T1, UCHL1 (Homo sapiens, UniProt P09936).
T1 construct: made in house; host or cells: HEK293T
T1 sequence (P09936 1-223): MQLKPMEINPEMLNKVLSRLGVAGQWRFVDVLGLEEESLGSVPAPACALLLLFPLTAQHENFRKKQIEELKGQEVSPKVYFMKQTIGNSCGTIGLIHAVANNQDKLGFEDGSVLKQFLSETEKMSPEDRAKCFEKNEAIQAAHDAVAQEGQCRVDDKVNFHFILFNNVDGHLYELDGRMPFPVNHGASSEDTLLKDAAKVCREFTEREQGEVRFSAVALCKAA
In words: UCHL1 biochemical IC50 assay (fluorescence polarisation). The note with it: 30 min enzyme/compound pre-incubation at room temp, read after 2 hr incubation, read-out: Activity range (UCHL1 biochemical IC50 assay). The gist of the method:
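FLAG-UCHL1 purified from transfected HEK293T cells was preincubated 30 min at room temperature with compound (8 points, 100–0.03 μM final) in Tris pH 7.5 buffer with Tween 20, BSA and beta-mercaptoethanol. Reaction started with 50 nM TAMRA-peptide–ubiquitin isopeptide substrate; fluorescence polarisation (ex 540/em 590 nm) read at once and after 2 h.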
On to `N#CN1CC[C@H](C(=O)Nc2ncc(-c3ccc(C(F)(F)F)cc3)s2)C1` [Example 68, (S)-1-cyano-N-(5-(4-(trifluoromethyl)phenyl)thiazol-2-yl)pyrrolidine-3-carboxamide], for which the negative logarithm of the IC50 (pIC50) was above 6.00.

With `N#CN1CC[C@H](C(=O)Nc2cc(N3CCCC3)ccn2)C1` [Example 107, (S)-1-cyano-N-(4-(pyrrolidin-1-yl)pyridin-2-yl)pyrrolidine-3-carboxamide], the negative-log IC50 (pIC50) was 5.00 to 6.00.

For `CC1CN(Cc2cnc(NC(=O)[C@H]3CCN(C#N)C3)s2)CC(C)O1` (stereo partly drawn) [Example 142, (3S)-1-cyano-N-(5-((2,6-dimethylmorpholino)methyl)thiazol-2-yl)pyrrolidine-3-carboxamide], the negative logarithm of the IC50 (pIC50) is 5.00 to 6.00.

For the compound `N#CN1CCC(C(=O)Nc2cnc(-c3ccccc3)nc2)C1` (centres unmarked) [Example 37, 1-cyano-N-(2-phenyl-pyrimidin-5-yl)pyrrolidine-3-carboxamide], the pIC50 is 4.52 to 5.00.

In the case of `N#CN1CC[C@H](C(=O)Nc2cn(C3Cc4ccccc4C3)cn2)C1` [Example 164, (S)-1-cyano-N-(1-(2,3-dihydro-1H-inden-2-yl)-1H-imidazol-4-yl)pyrrolidine-3-carboxamide], the pIC50 is above 6.00.

As for `C#CCNC(=O)c1cc(-c2cnc(NC(=O)[C@H]3CCN(C#N)C3)s2)ccc1Cl` [Example 239, (S)-N-(5-(4-chloro-3-(prop-2-yn-1-ylcarbarmoyl)phenyl)thiazol-2-yl)-1-cyanopyrrolidine-3-carboxamide], the pIC50 is above 6.00.

Take `N#CN1CC[C@H](C(=O)Nc2nc3ccc(-n4ccnn4)cc3s2)C1` [Example 62, (S)-N-(6-(1H-1,2,3-triazol-1-yl)benzo[d]thiazol-2-yl)-1-cyano-pyrrolidine-3-carboxamide]: the negative-log IC50 (pIC50) was above 6.00.

Turning to `N#CN1CC[C@H](C(=O)Nc2cc3cc(C(N)=O)ccc3cn2)C1` [Example 265, (S)-3-(1-cyanopyrrolidine-3-carboxamido)isoquinoline-6-carboxamide], the negative-log IC50 (pIC50) was 5.00 to 6.00.

With `CN(C)C(=O)c1cccc(-c2cnc(NC(=O)[C@H]3CCN(C#N)C3)s2)c1` [Example 235, (S)-1-cyano-N-(5-(3-(dimethylcarbamoyl)phenyl)thiazol-2-yl)pyrrolidine-3-carboxamide], the pIC50 is above 6.00.

On to `N#CN1CC[C@H](C(=O)Nc2ncc(-c3ccccn3)s2)C1` [Example 70, (S)-1-cyano-N-(5-(pyridin-2-yl)thiazol-2-yl)pyrrolidine-3-carboxamide], for which the pIC50 was 5.00 to 6.00.

For `CC1CC(C(=O)Nc2cc(-c3ccccc3)[nH]n2)CN1C#N` (mixture of isomers) [Example 90, 1-cyano-5-methyl-N-(5-phenyl-1H-pyrazol-3-yl)pyrrolidine-3-carboxamide], the pIC50 is 4.52 to 5.00.

For `N#Cc1ccc(-c2cnc(NC(=O)[C@H]3CCN(C#N)C3)s2)cc1F` [Example 214, (S)-1-cyano-N-(5-(4-cyano-3-fluorophenyl)thiazol-2-yl)pyrrolidine-3-carboxamide], the pIC50 was above 6.00.

Turning to `CNC(=O)c1ccc(-n2cnc(NC(=O)[C@H]3CCN(C#N)C3)c2)cc1` [Example 155, (S)-1-cyano-N-(1-(4-(methylcarbamoyl)phenyl)-1H-imidazol-4-yl)pyrrolidine-3-carboxamide], the pIC50 was above 6.00.

On to `COCCNC(=O)c1ccc(-n2cnc(NC(=O)[C@H]3CCN(C#N)C3)c2)cc1` [Example 158, (S)-1-cyano-N-(1-(4-((2-methoxyethyl)carbamoyl)phenyl)-1H-imidazol-4-yl)pyrrolidine-3-carboxamide], for which the pIC50 was above 6.00.

As to `CC(C)(C)c1cc(NC(=O)C2CCN(C#N)C2)[nH]n1` (centres unmarked) [Example 17, N-(3-(tert-butyl)-1H-pyrazol-5-yl)-1-cyano-pyrrolidine-3-carboxamide], the negative logarithm of the IC50 (pIC50) is 5.00 to 6.00.

Regarding `Cc1cnc(NC(=O)C2CCN(C#N)C2)s1` (centres unmarked) [Example 7, 1-cyano-N-(5-methylthiazol-2-yl)pyrrolidine-3-carboxamide], the pIC50 was 5.00 to 6.00.

As to `N#CN1CC[C@H](C(=O)Nc2nc3c(s2)CN(C(=O)c2cccnc2)CC3)C1` [Example 196, (S)-1-cyano-N-(5-nicotinoyl-4,5,6,7-tetrahydrothiazolo[5,4-c]pyridin-2-yl)pyrrolidine-3-carboxamide], the negative logarithm of the IC50 (pIC50) is above 6.00.

In the case of `N#CN1CC[C@H](C(=O)Nc2ncc(-c3cccc4cn[nH]c34)s2)C1` [Example 215, (S)-N-(5-(1H-indazol-7-yl)thiazol-2-yl)-1-cyanopyrrolidine-3-carboxamide], the negative-log IC50 (pIC50) was above 6.00.

`N#CN1CC[C@H](C(=O)Nc2cn(-c3ccc(C(F)(F)F)cc3)cn2)C1` [Example 153, (S)-1-cyano-N-(1-(4-(trifluoromethyl)phenyl)-1H-imidazol-4-yl)pyrrolidine-3-carboxamide]: the pIC50 was above 6.00.

Take `Cc1ccc(NC(=O)C2CCN(C#N)C2)nc1` (centres unmarked) [Example 26, 1-cyano-N-(5-methylpyridin-2-yl)pyrrolidine-3-carboxamide]: the negative-log IC50 (pIC50) was 4.52 to 5.00.

In the case of `CN(C)CC(=O)N1CCc2nc(NC(=O)[C@H]3CCN(C#N)C3)sc2C1` [Example 197, (S)-1-cyano-N-(5-(dimethylglycyl)-4,5,6,7-tetrahydrothiazolo[5,4-c]pyridin-2-yl)pyrrolidine-3-carboxamide], the negative-log IC50 (pIC50) is 5.00 to 6.00.

As for `N#CN1CC[C@H](C(=O)Nc2cn(CCc3ccccc3)cn2)C1` [Example 147, (S)-1-cyano-N-(1-phenethyl-1H-imidazol-4-yl)pyrrolidine-3-carboxamide], the negative-log IC50 (pIC50) is above 6.00.

`Cn1nc(NC(=O)[C@H]2CCN(C#N)C2)cc1-c1ccccc1` [Example 60, (S)-1-cyano-N-(1-methyl-5-phenyl-1H-pyrazol-3-yl)pyrrolidine-3-carboxamide]: the negative logarithm of the IC50 (pIC50) is above 6.00.

For the compound `N#CN1CC[C@H](C(=O)Nc2ncc(-c3cccc4[nH]ncc34)s2)C1` [Example 230, (S)—N-(5-(1H-indazol-4-yl)thiazol-2-yl)-1-cyanopyrrolidine-3-carboxamide], the negative-log IC50 (pIC50) was above 6.00.

On to `N#CN1CC[C@H](C(=O)Nc2ncc(-c3ccc4[nH]ncc4c3)s2)C1` [Example 223, (S)-N-(5-(1H-indazol-5-yl)thiazol-2-yl)-1-cyanopyrrolidine-3-carboxamide], for which the pIC50 is above 6.00.

For `C[C@@H]1CN(C#N)C[C@H]1C(=O)Nc1ncc(-c2ccccc2)s1` [Example 82, (3S,4S)-1-cyano-4-methyl-N-(5-phenylthiazol-2-yl)pyrrolidine-3-carboxamide], the pIC50 is above 6.00.
